The record followed here is article PMC12767106, “In Situ Assembly of Transformable Monopeptide on Activated Neutrophils Attenuates NETs‐Induced Hepatocellular Carcinoma Metastasis by Disrupting NE Nuclear Translocation” (Advanced Science, 2025).

Data set [1] deals with mice bearing Hepa1-6/luc tumors. Nature of the data set: Biodistribution by in vivo and ex vivo fluorescence imaging. Also noted: species or system mouse. The method, then:
To further evaluate the tumor tissue accumulation of FTP‐NPs in vivo, we conducted in vivo biodistribution studies using a murine model. For biodistribution studies, mice bearing Hepa1‐6/luc tumors were treated by NFTP‐NPs and FTP‐NPs via tail vein injection and monitored over time using an In‐Vivo system (IVIS, Figure 4a). After 12, 24, 48, and 168 h, tumors and major organs were collected for ex vivo fluorescence imaging (Figure S16a, Supporting Information). The fluorescence signal of the FTP‐NPs group was still detectable in tumor tissues after more than 3 days and lasted up to 7 days. In situ receptor‐mediated transformation of FTP‐NPs to NE‐fibril clusters in the tumor microenvironment may be responsible for the prolonged preservation of the fluorescence signal in FTP‐NPs‐treated mice, even after 7 days. […] The fluorescence signal of tumor tissue in the FTP‐NPs group at 48 h was 7.1‐fold higher than that in the NFTP‐NPs group (Figure S16b, Supporting Information).
Submitted to Advanced Science
Figure S16. Time-dependent ex vivo fluorescence (FL) images (a) and quantitative analysis (b) of tumor tissues and major organs (heart (H), liver (Li), spleen (Sp), lung (Lu), kidney (K), intestine(I), muscle (M), skin (Sk), and brain (B)) collected at 12, 24, 48, and 168 h post-injection of NFTP-NPs and FTP-NPs.
Figure S17. Gating strategy for T cell analysis. The tumor-bearing mice from each group were euthanized on day 20 post-treatment. Fifty thousand events were collected for each sample in the study. CD45+ cell counts determined the total T cell number, and CD8+ T cells were then gated within CD3+ T lymphocytes.
Figure S18. Corresponding flow cytometric quantification of CD8+T cells (CD45+CD3+CD8+, n = 3). Data are presented as mean ± s.d., n = 3 independent experiments. Statistical significance was calculated by one-way […]

The nature of data set [2]: Nanoparticle size stability by DLS. The data set is classed as physicochemical. As to conditions: room temperature, 20 µM, up to 168 h, method and Figure S3 legend name H2O and medium, repeated thrice.
The nature of data set [3]: Critical aggregation concentration, pyrene probe. The data set is classed as physicochemical. As to conditions: I3/I1 ratio, excitation 335 nm, 37 °C, 2 h, NPs 0.01-50 µM. On the procedure: Submitted to Advanced Science temperature. Following the incubation, 10 µL of the solution was added to a copper mesh at 0 and 24 h. Filter paper was used to remove any extra droplets after an overnight stay. The samples were then stained for five minutes with uranyl acetate and then rinsed for one minute with water (10 µL). Finally, dried samples were observed by TEM (Talos 120C, Thermo Fisher Scientific, USA). DLS (Zetasizer Nano ZS, UK) was used to assess the solution for hydrodynamic size and zeta potential at 0 and 24 h following the incubation. Then, the nanofiber structure at 0 h and 24 h after incubation of FTP-NPs was examined with Circular Dichroism (CD) Spectra (Chirascan, UM, Britain). In addition, the variation of fluorescence emission spectra of PpIX by […]
transformation of FTP-NPs.
Pyrene molecules were employed as an indicator to determine the critical aggregation concentration (CAC) of nanoparticles by comparing the fluorescence of their third and first emissive peaks. […] The fluorescence spectra of pyrene (excitation, 335 nm) in different NPs dilutions were recorded. The fluorescence intensity ratio (I3/I1) of the third and first emissive peaks was measured for CAC calculation. […]

The mark [4] stands for this setting: tail vein injection, IVIS imaging.

PpIX-GFFVLK-EAIPMSIPPEVK [FTP-NPs]: the “fluorescence signal of tumor tissue relative to NFTP-NPs group” value in data set [1] (48 h after tail vein injection, ex vivo imaging) is 7.1 fold. Further, the “duration of fluorescence signal in tumor tissues” value in data set [1] (setting [4]) is recorded as “up to 7 days”. Besides, in data set [2], the “size change in PBS and FBS solutions within 168 h” value is given as “did not change significantly”. For the same substance, the “critical aggregation concentration (CAC)” value in data set [3] is given as 5.45 µM.

Take “PpIX-GGGAAK-EAIPMSIPPEVK [NFTP-NPs, nanoparticles of the non-fibrillar transformable control peptide NFTP]”: the “fluorescence signal in major organs by 72 h” value in data set [1] (setting [4]) is “essentially undetectable”. For the same substance, the “size change in PBS and FBS solutions within 168 h” value in data set [2] is recorded as “did not change significantly”. The “critical aggregation concentration (CAC)” value in data set [3] is 3.75 µM.
